This note sets out measurements from patent US20240343694A1, “PYRIMIDINE DERIVATIVE, METHOD FOR PREPARING SAME, AND PHARMACEUTICAL COMPOSITION FOR PREVENTING OR TREATING CANCER COMPRISING SAME AS ACTIVE INGREDIENT” (KOREA RESERARCH INSTITUTE OF CHEMICAL TECHNOLOGY, priority 2021, published 2024).

What all share (assay type): biochemical
Holding throughout (details): recombinant enzyme, 37° C. for 2 hours

The target of one test is EGFR del19 (Homo sapiens (Human), UniProt P00533, DEL746-750). The experiment in a line: HTRF inhibitory activity against EGFR mutant enzyme (EGFR del19). The method, then:
(§1) The activity of the compounds of the present invention against EGFR mutant enzymes was measured using the HTRF system purchased from Cisbio as follows. For an EGFR mutant enzyme, the EGFR del19 enzyme was a recombinant protein purchased from Carna Biosciences, and the EGFR A763_Y764insFHEA enzyme was a recombinant protein purchased from SignalChem, respectively.
(§2) The composition of the assay buffer used for activity measurement was 50 mM tris-HCl pH 7.5, 100 mM NaCl, 7.5 mM MgCl2, 3 mM KCl, 0.01% tween 20, 0.1% BSA, and 1 mM DTT. An enzymatic reaction was performed using a peptide substrate labeled with ATP at a concentration of […] and biotin at a concentration of […]. The analysis of the inhibitory effect of the compounds on EGFR activity was performed according to the following method. • Component 1:4 μL of EGFR mutant enzyme • Component 2:2 μL of compound solution • Component 3:4 μL of ATP and a biotin labeled peptide
(§3) The enzyme reaction begins by first mixing component 1 and component 2 and then adding component 3 thereto. After the reaction at 37° C. for 2 hours, […] of a measurement solution consisting of streptavidin-XL665 and a europium-labeled anti-phosphotyrosine antibody purchased from Cisbio was added to the enzyme reaction solution and reacted at room temperature for 1 hour. Finally, the ratio of fluorescence values at 615 nm and 665 nm was measured using Perkin-Elmer's Envision instrument to calculate enzyme activity and confirm the inhibitory ability of the compounds. The measured values at 7 compound concentrations were analyzed using the Prism program (version 5.01, Graphpad Software, Inc.), and the IC50 (μM) values, which are measures of the compounds' inhibitory activity, were calculated.

The target in another test is EGFR A763_Y764insFHEA (Homo sapiens (Human), UniProt P00533, INS763FHEA). Kind of test: HTRF inhibitory activity against EGFR mutant enzyme (EGFR A763_Y764insFHEA). How it is done: as §1, §2, §3
EGFR A763_Y764insFHEA, sequence (P00533 other isoform, or with tags, fused parts or gaps del 1-694/ins FHEA behind 763 limits assumed): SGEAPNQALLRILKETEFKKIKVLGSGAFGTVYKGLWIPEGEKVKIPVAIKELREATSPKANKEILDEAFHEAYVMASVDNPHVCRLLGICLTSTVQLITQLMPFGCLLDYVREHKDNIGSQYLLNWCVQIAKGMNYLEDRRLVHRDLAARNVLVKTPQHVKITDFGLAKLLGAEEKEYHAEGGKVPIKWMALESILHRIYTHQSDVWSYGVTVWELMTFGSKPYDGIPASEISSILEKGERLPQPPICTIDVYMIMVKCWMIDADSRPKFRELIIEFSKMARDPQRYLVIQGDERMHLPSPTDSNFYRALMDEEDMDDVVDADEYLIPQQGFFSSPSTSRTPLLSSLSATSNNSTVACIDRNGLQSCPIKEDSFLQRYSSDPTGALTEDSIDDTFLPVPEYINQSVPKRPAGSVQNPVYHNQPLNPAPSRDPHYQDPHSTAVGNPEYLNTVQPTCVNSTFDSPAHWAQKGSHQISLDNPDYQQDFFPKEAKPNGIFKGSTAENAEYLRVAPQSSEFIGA
In a further test the target is HER2 A775_G776insYVMA (Homo sapiens (Human), UniProt P04626, INS775YVMA). The experiment in a line: HTRF inhibitory activity against HER2 mutant enzyme. How it is done: The activity of the compounds of the present invention against HER mutant enzymes was measured using the HTRF system purchased by Cisbio as follows. As a HER2 mutant enzyme, the HER2 A775_G776insYVMA mutant enzyme was used by purchasing a recombinant protein provided by Carna Biosciences.
HER2 A775_G776insYVMA, sequence (P04626 other isoform, or with tags, fused parts or gaps del 1-675/ins YVMA behind 775 limits assumed): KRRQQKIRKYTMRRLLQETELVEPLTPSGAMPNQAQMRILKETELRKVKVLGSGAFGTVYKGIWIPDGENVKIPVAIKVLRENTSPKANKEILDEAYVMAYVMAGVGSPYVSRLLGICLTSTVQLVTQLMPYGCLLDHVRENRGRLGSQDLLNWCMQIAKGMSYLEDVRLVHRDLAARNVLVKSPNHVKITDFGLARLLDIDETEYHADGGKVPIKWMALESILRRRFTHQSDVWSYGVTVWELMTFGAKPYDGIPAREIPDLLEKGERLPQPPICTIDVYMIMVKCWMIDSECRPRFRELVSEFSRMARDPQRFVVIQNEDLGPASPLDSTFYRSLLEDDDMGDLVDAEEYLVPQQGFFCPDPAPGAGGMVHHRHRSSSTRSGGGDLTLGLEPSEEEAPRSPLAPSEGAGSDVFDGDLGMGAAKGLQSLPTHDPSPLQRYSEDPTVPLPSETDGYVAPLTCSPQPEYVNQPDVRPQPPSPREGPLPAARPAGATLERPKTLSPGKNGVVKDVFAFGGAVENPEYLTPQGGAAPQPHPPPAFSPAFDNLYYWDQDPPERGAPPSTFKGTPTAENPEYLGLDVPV
as §2, with “mM DTT. In addition thereto, the enzymatic reaction” for “mM DTT. An enzymatic reaction”, “of the activity inhibitory effect” for “of the inhibitory effect”, “compounds on HER2 A775_G776insYVMA mutation was performed” for “compounds on EGFR activity was performed”, “μL of HER2 A775_G776insYVMA mutant enzyme” for “μL of EGFR mutant enzyme”
as §3, with “Finally, the ratio of fluorescence values at 615 nm and 665 nm was measured using Perkin-Elmer's Envision instrument to calculate enzyme activity and confirm the inhibitory ability of the compounds.” left out, “ability,” for “activity,”

For orientation: IC50 means the midpoint of a concentration-inhibition curve.

Some results are limits rather than exact numbers.

EGFR del19, sequence (P00533 other isoform, or with tags, fused parts or gaps del 1-668/del 746-750 limits assumed): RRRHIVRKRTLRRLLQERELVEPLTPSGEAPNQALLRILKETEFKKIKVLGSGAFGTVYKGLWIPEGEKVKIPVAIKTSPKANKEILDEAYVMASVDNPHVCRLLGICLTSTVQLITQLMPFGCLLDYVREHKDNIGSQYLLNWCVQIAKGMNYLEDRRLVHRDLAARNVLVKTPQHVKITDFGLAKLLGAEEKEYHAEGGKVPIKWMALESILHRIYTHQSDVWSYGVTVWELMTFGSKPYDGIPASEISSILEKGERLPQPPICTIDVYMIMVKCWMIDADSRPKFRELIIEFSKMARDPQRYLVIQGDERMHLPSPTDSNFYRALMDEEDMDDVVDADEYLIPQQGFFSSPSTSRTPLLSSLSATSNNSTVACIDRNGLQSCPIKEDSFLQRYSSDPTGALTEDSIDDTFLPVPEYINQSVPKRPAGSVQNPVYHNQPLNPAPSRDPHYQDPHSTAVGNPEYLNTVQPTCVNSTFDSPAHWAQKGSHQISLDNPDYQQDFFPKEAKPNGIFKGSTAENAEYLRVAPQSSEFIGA

Regarding `C=CC(=O)Nc1cc(Nc2nccc(Nc3ccccc3NS(=O)(=O)CCC)n2)c(OC)cc1N(C)CCN(C)C` [Example 8, N-(2-((2-(dimethylamino)ethyl)(methyl)amino)-4-methoxy-5-((4-((2-(propylsulfonamido)phenyl)amino)pyrimidin-2-yl)amino)phenyl)acrylamide], the results for the IC50 at EGFR del19, at EGFR A763_Y764insFHEA and at HER2 A775_G776insYVMA were 0.01 µM, 0.02 µM and 0.92 µM, respectively.

Turning to `C=CC(=O)Nc1cc(Nc2nccc(Nc3ccccc3NS(=O)(=O)c3ccc(C)cc3)n2)c(OC)cc1N(C)CCN(C)C` [Example 9, N-(2-((2-(dimethylamino)ethyl)(methyl)amino)-4-methoxy-5-((4-((2-((4-methylphenyl)sulfonamido)phenyl)amino)pyrimidin-2-yl)amino)phenyl)acrylamide], the figures for the IC50 at EGFR del19, at EGFR A763_Y764insFHEA and on HER2 A775_G776insYVMA were 0.02 µM, 0.09 µM and 2.4 µM, respectively.

On to `C=CC(=O)Nc1cc(Nc2nccc(Nc3ccccc3NS(=O)(=O)CC)n2)c(OC)cc1N(C)CCN(C)C` [Example 10, N-(2-((2-(dimethylamino)ethyl)(methyl)amino)-5-((4-((2-(ethylsulfonamido)phenyl)amino)pyrimidin-2-yl)amino)-4-methoxyphenyl)acrylamide], for which the 50% inhibitory concentration (IC50) was under 0.001 µM on EGFR del19, 0.01 µM at EGFR A763_Y764insFHEA and 0.44 µM on HER2 A775_G776insYVMA.

Take `C=CC(=O)Nc1cc(Nc2ncc(F)c(Nc3ccccc3NS(=O)(=O)CC)n2)c(OC)cc1N(C)CCN(C)C` [Example 12, N-(2-((2-(dimethylamino)ethyl)(methyl)amino)-5-((4-((2-(ethylsulfonamido)phenyl)amino)-5-fluoropyrimidin-2-yl)amino)-4-methoxyphenyl)acrylamide]: the IC50 at EGFR del19 was under 0.001 µM; at EGFR A763_Y764insFHEA it was 0.004 µM; on HER2 A775_G776insYVMA, 0.069 µM.

With `C=CC(=O)Nc1cc(Nc2ncc(F)c(Nc3ccccc3NS(=O)(=O)CCC)n2)c(OC)cc1N(C)CCN(C)C` [Example 13, N-(2-((2-(dimethylamino)ethyl)(methyl)amino)-5-((5-fluoro-4-((2-(propylsulfonamido)phenyl)amino)pyrimidin-2-yl)amino)-4-methoxyphenyl)acrylamide], the half-maximal inhibitory concentration (IC50) came to 0.002 µM at EGFR del19, 0.01 µM on EGFR A763_Y764insFHEA and 0.14 µM on HER2 A775_G776insYVMA.

As for `C=CC(=O)Nc1cc(Nc2ncc(F)c(Nc3ccccc3NS(=O)(=O)c3ccccc3)n2)c(OC)cc1N(C)CCN(C)C` [Example 14, N-(2-((2-(dimethylamino)ethyl)(methyl)amino)-5-((5-fluoro-4-((2-(phenylsulfonamido)phenyl)amino)pyrimidin-2-yl)amino)-4-methoxyphenyl)acrylamide], the figures for the IC50 at EGFR del19, on EGFR A763_Y764insFHEA and at HER2 A775_G776insYVMA were 0.001 µM, 0.002 µM and 0.41 µM, respectively.

For `C=CC(=O)Nc1cc(Nc2ncc(F)c(Nc3ccccc3NS(=O)(=O)c3ccc(C)cc3)n2)c(OC)cc1N(C)CCN(C)C` [Example 15, N-(2-((2-(dimethylamino)ethyl)(methyl)amino)-5-((5-fluoro-4-((2-((4-methylphenyl)sulfonamido)phenyl)amino)pyrimidin-2-yl)amino)-4-methoxyphenyl)acrylamide], the results for the concentration for half-maximal inhibition (IC50) at EGFR del19, on EGFR A763_Y764insFHEA and at HER2 A775_G776insYVMA were 0.01 µM, 0.01 µM and 1.2 µM, respectively.

With `C=CC(=O)Nc1cc(Nc2ncc(C)c(Nc3ccccc3NS(=O)(=O)c3ccc(C)cc3)n2)c(OC)cc1N(C)CCN(C)C` [Example 17, N-(2-((2-(dimethylamino)ethyl)(methyl)amino)-4-methoxy-5-((5-methyl-4-((2-((4-methylphenyl)sulfonamido)phenyl)amino)pyrimidin-2-yl)amino)phenyl)acrylamide], the half-inhibitory concentration (IC50) on EGFR del19 turned out to be 0.01 µM; at EGFR A763_Y764insFHEA, 0.02 µM; on HER2 A775_G776insYVMA, 1.1 µM.

Take `C=CC(=O)Nc1cc(Nc2ncc(C)c(Nc3ccccc3NS(=O)(=O)CCC)n2)c(OC)cc1N(C)CCN(C)C` [Example 18, N-(2-((2-(dimethylamino)ethyl)(methyl)amino)-4-methoxy-5-((5-methyl-4-((2-(propylsulfonamido)phenyl)amino)pyrimidin-2-yl)amino)phenyl)acrylamide]: the IC50 at EGFR del19 was under 0.001 µM; at EGFR A763_Y764insFHEA, 0.007 µM; at HER2 A775_G776insYVMA it was 0.11 µM.

For `C=CC(=O)Nc1cc(Nc2ncc(C)c(Nc3ccccc3NS(=O)(=O)CC)n2)c(OC)cc1N(C)CCN(C)C` [Example 19, N-(2-((2-(dimethylamino)ethyl)(methyl)amino)-5-((4-((2-(ethylsulfonamido)phenyl)amino)-5-methylpyrimidin-2-yl)amino)-4-methoxyphenyl)acrylamide], the values for the IC50 at EGFR del19, on EGFR A763_Y764insFHEA and at HER2 A775_G776insYVMA were under 0.001 µM, 0.003 µM and 0.034 µM, respectively.

As for `C=CC(=O)Nc1cc(Nc2ncc(C)c(Nc3ccccc3NS(=O)(=O)c3ccccc3)n2)c(OC)cc1N(C)CCN(C)C` [Example 20, N-(2-((2-(dimethylamino)ethyl)(methyl)amino)-4-methoxy-5-((5-methyl-4-((2-(phenylsulfonamido)phenyl)amino)pyrimidin-2-yl)amino)phenyl)acrylamide], the figures for the half-inhibitory concentration (IC50) on EGFR del19, on EGFR A763_Y764insFHEA and on HER2 A775_G776insYVMA were 0.002 µM, 0.006 µM and 0.37 µM, respectively.

With `C=CC(=O)Nc1cc(Nc2ncc(Cl)c(Nc3ccccc3NS(C)(=O)=O)n2)c(OC)cc1N(C)CCN1CCCCC1` [Example 23, N-(5-((5-chloro-4-((2-(methylsulfonamido)phenyl)amino)pyrimidin-2-yl)amino)-4-methoxy-2-(methyl(2-(piperidin-1-yl)ethyl)amino)phenyl)acrylamide], the concentration for half-maximal inhibition (IC50) on EGFR del19 is under 0.001 µM; on EGFR A763_Y764insFHEA, 0.003 µM; at HER2 A775_G776insYVMA, 0.03 µM.

With `COc1cc(N2CCOCC2)c(NC(=O)/C=C/CN(C)C)cc1Nc1ncc(Cl)c(Nc2ccccc2NS(C)(=O)=O)n1` [Example 26, (E)-N-(5-((5-chloro-4-((2-(methylsulfonamido)phenyl)amino)pyrimidin-2-yl)amino)-4-methoxy-2-morpholinophenyl)-4-(dimethylamino)buten-2-amide], the IC50 on EGFR del19 is 0.004 µM; at EGFR A763_Y764insFHEA, 0.2 µM; on HER2 A775_G776insYVMA, 0.08 µM.

Consider `COc1cc(N2CCN(C)CC2)c(NC(=O)/C=C/CN(C)C)cc1Nc1ncc(Cl)c(Nc2ccccc2NS(C)(=O)=O)n1` [Example 27, (E)-N-(5-((5-chloro-4-((2-(methylsulfonamido)phenyl)amino)pyrimidin-2-yl)amino)-4-methoxy-2-(4-methylpiperazin-1-yl)phenyl)-4-(dimethylamino)buten-2-amide], for which the half-inhibitory concentration (IC50) at EGFR del19 turned out to be 0.003 µM; at EGFR A763_Y764insFHEA, 0.009 µM; on HER2 A775_G776insYVMA, 0.03 µM.

In the case of `COc1cc(N(C)CCN(C)C)c(NC(=O)/C=C/CN(C)C)cc1Nc1ncc(Cl)c(Nc2ccccc2NS(C)(=O)=O)n1` [Example 28, (E)-N-(5-((5-chloro-4-((2-(methylsulfonamido)phenyl)amino)pyrimidin-2-yl)amino)-2-((2-(dimethylamino)ethyl)(methyl)amino)-4-methoxyphenyl)-4-(dimethylamino)buten-2-amide], the IC50 at EGFR del19 was under 0.001 µM; at EGFR A763_Y764insFHEA it was 0.008 µM; on HER2 A775_G776insYVMA, 0.07 µM.

On to `C=CC(=O)Nc1cc(Nc2ncc(Cl)c(Nc3cccc(Cl)c3NS(C)(=O)=O)n2)c(OC)cc1N(C)CCN(C)C` [Example 34, N-(5-((5-chloro-4-((3-chloro-2-(methylsulfonamido)phenyl)amino)pyrimidin-2-yl)amino)-2-((2-(dimethylamino)ethyl)(methyl)amino)-4-methoxyphenyl)acrylamide], for which the IC50 is under 0.001 µM at EGFR del19, 0.001 µM at EGFR A763_Y764insFHEA and 0.02 µM on HER2 A775_G776insYVMA.
